Article PMC10901774, “Mirror-image ligand discovery enabled by single-shot fast-flow synthesis of D-proteins” (Nature Communications, 2024)
Read-outs that look alike come from different tables or passages of the source. *1 amine or outer side, *2 acyl side, *3 side chain or, on linkers, in order; H or OH if unused. Where a SMILES comes first, the peptide text is derived from it. Bridges are numbered along the chain shown (N, C = ends). [ ]: non-standard residue; d: D form. Phenylene(1,4-NHCOCH2)2 = O=C(C[*:1])Nc1ccc(NC(=O)C[*:2])cc1

Legend:
[1] = target: T1, CHIP23-303 recombinant protein (Homo sapiens, UniProt Q9UNE7); assay: competition fluorescence polarization against FAM-Hsp70 peptide loaded CHIP; format: binding; details: SI table 1.27.1, read-out: Measured IC50
T1 construct: 6xHis (N, cleaved yes); TEV cleavage site (N, cleaved yes); made in house; host or cells: E. coli BL21 CodonPlus (pET21b-derived vector)
T1 sequence (Q9UNE7 23-303): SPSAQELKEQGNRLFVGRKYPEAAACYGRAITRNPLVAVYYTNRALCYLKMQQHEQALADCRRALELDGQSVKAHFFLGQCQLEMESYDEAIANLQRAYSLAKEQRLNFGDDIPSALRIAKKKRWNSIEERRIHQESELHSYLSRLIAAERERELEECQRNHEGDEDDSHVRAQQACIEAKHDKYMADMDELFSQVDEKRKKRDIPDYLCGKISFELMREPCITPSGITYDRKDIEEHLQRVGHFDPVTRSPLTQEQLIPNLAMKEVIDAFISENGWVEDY
From the text: Not limited to known D-proteins, we nominated an original target for MIPD screening, CHIP, and identified three macrocyclic D-peptide binders. CHIP is a member of the RING/U-Box family of E3 ligases that direct the ubiquitination of chaperones[66] and their bound client proteins[67],[68] (Fig. 6A). This interaction is driven by a common (I/M)EEVD motif present on the C-terminus of heat shock protein 70 (Hsp70) and Hsp90 family members that is recognized by the TPR domain of CHIP[69] (Fig. 6B). Degradation driven by CHIP is active in a diverse range of cellular processes from monitoring protein quality control[68] to mediating interferon-γ signaling. Masking of the CHIP-TPR domain can in theory modulate these signaling pathways and as a result is actively being pursued[69],[71]. In addition, CHIP belongs to the same protein family as MDM2 (E3 ubiquitin ligases) and has potential therapeutic relevance by being implicated in neurological disease. For these reasons, we hypothesized that this domain would be a valuable target for D-peptide discovery, and successfully isolated the protein in its mirror image form for MIPD screening. […] All three clusters feature conserved terminal residues with carboxylate functionalities (dD3 in CHIP.C1, dD1/dE2 in CHIP.C2, and dD12 in CHIP.C3), consistent with the conserved terminal aspartic acid residues found on CHIP substrates. Hydrophobic residues are retained in the i,i + 4/5 positions relative to the anchoring aspartic acid residue: dW6 in CHIP.C1, dW6 in CHIP.C2, and dA8 in CHIP.C3, presumably for interaction with the hydrophobic TPR groove.
Supplementary Figure 14. D-H109 SPR to Recombinant MDM2. Sensorgrams and steady state affinity plots of D-H109 binding to recombinant MDM2 are shown.
1.27. CHIP Peptide Binders from Phage Display
1.27.1. CHIP Binder Sequences
Cluster ID Sequence Measured IC50
CHIP.C1 H201ǂ Ac-pwedcawfawacyni-NH2 470 nM
CHIP.C2 H203ǂ Ac-phemcywadaycrys-NH2 550 nM
CHIP.C2 H204ǂ Ac-pldlcywaslhcivs-NH2 770 nM
Listed sequences were cyclized between C5 and C12 with N,N'-(1,4-phenylene)bis(2-bromoacetamide) . ǂSequences were selected for co-crystallization with CHIP.
1.27.2. CHIP Binder FP Validation
For the competition FP of CHIP, Helicons at 10 mM in DMSO were serially diluted 1:3 in DMSO for a total of 11 concentrations using a Mosquito LV (SPT Labtech), then diluted 1000-fold in buffer (1 x HBS-P+, Cytiva) in duplicate by the Mosquito LV (SPT Labtech) into a black polystyrene 384-well plate (Corning) (11-point three-fold peptide dilution series with top concentration = 10 μM). […]
HSP70). The plate was incubated and protected from light for 1 hour at room temperature prior to reading. Reads were performed on a CLARIOstar plate reader (BMG Labtech) with excitation at 485 nm, emission at 525 nm, and cutoff at 504 nm. […]

[2] = target: T2, recombinant MDM2 (biotinylated MDM2[25-109]) (Homo sapiens, UniProt Q00987); assay: SPR of macrocyclic D-peptides to recombinant MDM2; format: binding; details: SI table 1.26.1, Biacore 8K, 25 °C, 1x HBS-P+ with 1% DMSO, top concentration 5 μM, N = 1, * = listed KD value is beyond tested concentrations, read-out: Measured KD
T2 construct: MDM2 (residues 25-109); made in house
T2 sequence (Q00987 25-109): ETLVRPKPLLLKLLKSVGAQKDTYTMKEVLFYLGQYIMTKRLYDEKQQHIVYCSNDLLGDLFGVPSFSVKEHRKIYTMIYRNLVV
From the text: We identified three binding clusters selective for D-MDM2 with phage display screening (Fig. 4A and SI Section 1.26). In brief, immobilized D-MDM2 from AFPS was screened against an unbiased phage library of 10^8 members displaying macrocyclic α-helical peptides. We sequenced phage particles that remained bound to the targets after washing using next-generation sequencing. Comparisons of sequencing reads to a spiked-in internal reference allowed for a semi-quantitative read-out of binding affinity as a function of protein bait concentration. […] Consistent with previously described α-helical peptide binders to MDM2[64],[65], all three clusters contain anchoring N-terminal tryptophan residues (dW2 in MDM2.C1, dW1 in MDM2.C2, and dW1 in MDM2.C3), and show conserved hydrophobic residues on the same α-helical face as the tryptophan residue (i,i + 4/5 and i,i + 8/9 relative to dW on each cluster). To validate the specificity of each binding cluster, we synthesized representative binding peptides in the D-form (Fig. 4B, D-H101 from MDM2.C1, D-H102 from MDM2.C2, and D-H103 from MDM2.C3) and measured their affinity to recombinant MDM2 with SPR. We observed binding constants of 5.5 μM, 2.4 μM, and 0.88 μM, respectively (Fig. 4C and Supplementary Figs. 6–8).
1.24. YAP1-WW1-WW2 Protein Expression […]
Cluster ID Sequence Measured KD […]

[3] = 400 nM CHIP23-303, 20 nM probe 5FAM-bAla-[…], 1 hour room temperature, duplicate

SMILES | IC50 [1, 3] [nM] | further results
CC(=O)N1CCC[C@@H]1C(=O)N[C@H](Cc1c[nH]c2ccccc12)C(=O)N[C@H](Cc1c[nH]c2ccccc12)C(=O)N[C@H](CCC(=O)O)C(=O)N[C@@H]1CSCC(=O)Nc2ccc(cc2)NC(=O)CSC[C@H](C(=O)N[C@H](CC(=O)O)C(=O)N[C@H](Cc2ccccc2)C(=O)N[C@H](CCCNC(=N)N)C(N)=O)NC(=O)[C@@H](CC(=O)O)NC(=O)[C@@H](CC(=O)O)NC(=O)[C@@H](C)NC(=O)[C@@H](CCC(N)=O)NC(=O)[C@@H](CO)NC(=O)[C@@H](CC(C)C)NC1=O [D-H202] (Ac-[dP][dW][dW][dE][dC][dL][dS][dQ][dA][dD][dD][dC][dD][dF][dR]-NH2; linker 5-12 via Phenylene(1,4-NHCOCH2)2) |  | IC50 ([1]; unit as printed in the cell of H202, same competition FP): 1230 nM
CC(=O)N[C@H](CC(=O)O)C(=O)N1CCC[C@@H]1C(=O)N[C@H](C)C(=O)N[C@H](CO)C(=O)N[C@H](CCCNC(=N)N)C(=O)N[C@H](CC(N)=O)C(=O)N[C@@H]1CSCC(=O)Nc2ccc(cc2)NC(=O)CSC[C@H](C(=O)N[C@H](CCC(=O)O)C(=O)N[C@H](Cc2ccc(O)cc2)C(=O)N[C@H](Cc2c[nH]c3ccccc23)C(N)=O)NC(=O)[C@@H](CC(C)C)NC(=O)[C@@H](Cc2c[nH]cn2)NC(=O)[C@@H](C)NC(=O)[C@@H](C)NC(=O)[C@@H](Cc2c[nH]c3ccccc23)NC(=O)[C@@H](CCC(N)=O)NC1=O [H107] (Ac-[dD][dP][dA][dS][dR][dN][dC][dQ][dW][dA][dA][dH][dL][dC][dE][dY][dW]-NH2; linker 7-14 via Phenylene(1,4-NHCOCH2)2) |  | Kd [2]: 1100 nM
CC[C@@H](C)[C@@H](NC(=O)[C@H]1CSCC(=O)Nc2ccc(cc2)NC(=O)CSC[C@@H](NC(=O)[C@@H](CC(C)C)NC(=O)[C@@H](CC(=O)O)NC(=O)[C@@H](CC(C)C)NC(=O)[C@H]2CCCN2C(C)=O)C(=O)N[C@H](Cc2ccc(O)cc2)C(=O)N[C@H](Cc2c[nH]c3ccccc23)C(=O)N[C@H](C)C(=O)N[C@H](CO)C(=O)N[C@H](CC(C)C)C(=O)N[C@H](Cc2c[nH]cn2)C(=O)N1)C(=O)N[C@@H](C(=O)N[C@H](CO)C(N)=O)C(C)C [H204] (Ac-[dP][dL][dD][dL][dC][dY][dW][dA][dS][dL][dH][dC][dI][dV][dS]-NH2; linker 5-12 via Phenylene(1,4-NHCOCH2)2) | 770 | 

Now from value to molecule, other results behind:

IC50 [1, 3] [nM] | SMILES | further results
470 | CC[C@@H](C)[C@@H](NC(=O)[C@@H](CC(N)=O)NC(=O)[C@@H](Cc1ccc(O)cc1)NC(=O)[C@H]1CSCC(=O)Nc2ccc(cc2)NC(=O)CSC[C@@H](NC(=O)[C@@H](CC(=O)O)NC(=O)[C@@H](CCC(=O)O)NC(=O)[C@@H](Cc2c[nH]c3ccccc23)NC(=O)[C@H]2CCCN2C(C)=O)C(=O)N[C@H](C)C(=O)N[C@H](Cc2c[nH]c3ccccc23)C(=O)N[C@H](Cc2ccccc2)C(=O)N[C@H](C)C(=O)N[C@H](Cc2c[nH]c3ccccc23)C(=O)N[C@H](C)C(=O)N1)C(N)=O [D-H201] (Ac-[dP][dW][dE][dD][dC][dA][dW][dF][dA][dW][dA][dC][dY][dN][dI]-NH2; linker 5-12 via Phenylene(1,4-NHCOCH2)2) | 
550 | CSCC[C@@H](NC(=O)[C@@H](CCC(=O)O)NC(=O)[C@@H](Cc1c[nH]cn1)NC(=O)[C@H]1CCCN1C(C)=O)C(=O)N[C@@H]1CSCC(=O)Nc2ccc(cc2)NC(=O)CSC[C@H](C(=O)N[C@H](CCCNC(=N)N)C(=O)N[C@H](Cc2ccc(O)cc2)C(=O)N[C@H](CO)C(N)=O)NC(=O)[C@@H](Cc2ccc(O)cc2)NC(=O)[C@@H](C)NC(=O)[C@@H](CC(=O)O)NC(=O)[C@@H](C)NC(=O)[C@@H](Cc2c[nH]c3ccccc23)NC(=O)[C@@H](Cc2ccc(O)cc2)NC1=O [D-H203] (Ac-[dP][dH][dE][dM][dC][dY][dW][dA][dD][dA][dY][dC][dR][dY][dS]-NH2; linker 5-12 via Phenylene(1,4-NHCOCH2)2) | 
